Laboratory results published in patent US10363231B2, “Compounds and methods of treating ocular disorders” (CASE WESTERN RESERVE UNIVERSITY, priority 2014, dated 2019).

Tests used:
LRAT = biological target: T1, LRAT (Bos taurus, UniProt Q9BGL2); experiment: LRAT activity assay with bovine RPE microsomes (esterification of the corresponding primary alcohols); type: biochemical; conditions: for LRAT Substrate: percentage of the corresponding primary alcohol esterified by LRAT in 1 h at 37° C, 10 μM, RPE microsomes
T1 construct: incubated with RPF microsomes that served as a source of LRAT enzymatic activity; from tissue; host or cells: bovine retinal pigment epithelium (RPE) microsomes
T1 sequence (Q9BGL2 1-230): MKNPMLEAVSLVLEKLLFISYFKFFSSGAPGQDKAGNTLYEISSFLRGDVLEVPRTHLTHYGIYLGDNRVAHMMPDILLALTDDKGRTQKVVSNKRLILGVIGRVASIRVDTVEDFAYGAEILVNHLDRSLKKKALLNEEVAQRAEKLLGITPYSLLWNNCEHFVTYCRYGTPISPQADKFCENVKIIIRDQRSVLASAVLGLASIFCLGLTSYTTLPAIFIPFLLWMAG
Experimental: Bovine RPE microsomes were isolated from RPE homogenates by differential centrifugation as previously described. The resulting microsomal precipitate was resuspended in 10 mM Bis-Tris propane/HCl buffer, pH 7.4, to achieve a total protein concentration of […]. Then the mixture was placed in a quartz cuvette and irradiated for 6 min at 4° C. with a ChromatoUVE transilluminator (model TM-15; UVP) to eliminate residual retinoids. After irradiation, DTT was added to the RPE microsomal mixture to achieve a final concentration of 5 mM.
Two μl of a synthesized primary alcohol or amine dissolved in DMF (final concentration 10 μM) and 2 μl of 1,2-diheptanoyl-sn-glicerol-3-phosphocholine (water, final concentration 1 mM) were added to 200 μl of 10 mM Bis-Tris propane/HCl buffer, pH 7.4, containing 150 μg of RPE microsomes and 1% (v/w) BSA. The resulting mixture was incubated at 37° C. for 1 h. The reaction was quenched by adding 300 μl of methanol. Most reaction products were extracted with 300 μl of hexanes, except for products from the QEA-C-006 and QEA-G groups which were extracted by adding 300 μl of ethyl acetate and 300 μl of water.
Reaction products were separated and quantified by normal phase HPLC (Agilent Sil 5 μm, 4.6 mm×250 mm) in stepwise gradient of ethyl acetate in hexanes (0-15 min, 10%; 20-30 min, 30%) at a flow rate of 1.4 ml·min^−1.
The properties of retinoid derivatives were examined by two standard enzymatic tests, the […] and retinoid isomerization assays. To identify substrates of LRAT, aldehydes were reduced by sodium borohydrate to their corresponding primary alcohols that then were directly used in the esterification assay (FIG. 2B).
The alcohols were incubated with RPF microsomes that served as a source of LRAT enzymatic activity. Products of the enzymatic reaction as well as the remaining substrates were extracted with organic solvents and analyzed by HPLC. The ratio between a substrate and its esterified form was used to measure enzymatic activity efficiency, based on equivalent UV absorption of the substrate and product at their specific UV maxim wavelengths. Compounds classified as ‘good’ LRAT substrates converted at least 50% of their available alcohol substrates into corresponding esters under these experimental conditions, whereas marginal LRAT substrates were converted at less than 5%. Alcohols with a 5-50% conversion ratio were classified as weak substrates. Among 35 tested compounds, 23 were categorized as good and 9 as weak substrates; 3 compounds were not esterified by LRAT (Table 1 and FIG. 2C). […] Moreover, breaking double bond conjugation along the polyene chain or deletion of a C9 and/or a C13 methyl group also was allowed.

[1] = Analysis of retinoid composition in mouse tissues: amide forms in liver by HPLC; type: in vivo, mice; conditions: oral gavage; for Protection by amide in liver: 4-week-old Abca4−/−Rdh8−/− mice, dark 24 h, liver extracts by HPLC
Experimental: (§1) Abca4^−/−Rdh8^−/− double knockout mice were generated as previously described. Mice were housed in the animal facility at the School of Medicine, Case Western Reserve University, where they were maintained under either complete darkness or in a 12-h light (˜300 lux) and 12-h dark cycle. All tested primary amines were suspended in 100 μl of soybean oil with less than 10% (v/v) DMSO and were administered by oral gavage with a 22-gauge feeding needle. Experimental manipulations in the dark were done under dim red light transmitted through a Kodak No. 1 safelight filter (transmittance >560 nm). All animal procedures and experiments were approved by the Case Western Reserve University Animal Care Committees and conformed to recommendations of the American Veterinary Medical Association Panel on Euthanasia and the Association of Research for Vision and Ophthalmology.
Two mg of primary amines were administered by oral gavage to 4-week-old Abca4^−/−Rdh8^−/− mice, which then were kept in the dark for 24 h. Then mice were euthanized, and their livers were homogenized in 1 ml of 10 mM sodium phosphate buffer, pH 7.4, containing 50% methanol (v/v). The resulting mixture was extracted with 4 ml of hexanes. Extracts were dried in vacuo, and reconstituted in 300 μl of hexanes. 100 μl of this solution was analyzed by HPLC as described above for the LRAT activity assay.
(§2) For practical reasons, only eight of these leading compounds (QEA-B-001-NH2, B-002-NH2, C-001-NH2, C-003-NH2, C006-NH2, E-002-NH2, TEA-B-002-NH2, and C00-2-NH2) along with retinylamine as a control were selected for further testing in Abca4^−/−Rdh8^−/− mice, an animal model for light-induced retinal degeneration (Table 2). Additionally, two novel amines with moderate inhibition of RPE65 (QEA-A-006-NH2 and QEA-B-003-NI 12) and one with strong inhibition (QEA-A-005-NH2) were added to the first test group for comparison. Mice were gavaged with 1 mg of a test compound and then kept in the dark for 24 h prior to being exposed to bright light (˜10,000 lux) for 1 h. Retinal damage was assessed with OCT that measured the thickness of the outer nuclear layer and by quantification of tissue 11-cis retinal levels. An example is shown for imaging results in FIG. 4A and for 11-cis-retinal quantification in FIG. 4B. Additionally, extracts of livers obtained from treated mice were analyzed by HPLC to estimate the amounts of corresponding amides (FIG. 4C).

Abca4^−/−Rdh8^−/− mice = experiment: Toxicity in treated Abca4−/−Rdh8−/− mice (Table 2); type: in vivo; conditions: 4-week-old Abca4−/−Rdh8−/− mice, oral gavage
Experimental: as §1, §2

| Structure (SMILES) | LRAT Substrate (LRAT) [%] | Protection by amide in liver [1] | Toxicity (Abca4^−/−Rdh8^−/− mice) | LRAT substrate class (LRAT; conversion of the alcohol to ester) | amidation in vivo (accumulation of amide forms in mouse liver) ([1]; liver HPLC) |
| --- | --- | --- | --- | --- | --- |
| CC1=C(/C=C/C(C)=C/C=C/C(C)=C/CN)C(C)(C)CCC1 [QEA-A-001-NH2, retinylamine] | 100 | Strong | None |  |  |
| CC(/C=C/C=C(/C=C/C1=CCCCC1)C(C)(C)C)=C\CN [QEA-B-001-NH2] | 80 | Strong | Yes | good (Compounds classified as ‘good’ LRAT substrates converted at least 50% of their available alcohol substrates into corresponding esters) | efficiently converted into amides |
